Experimental data as given in the NIST ThermoML archive (doi:10.1021/acs.jced.7b00195).
± gives the expanded uncertainty stated by the source.

Conditions: Gas, Burnett expansion method

CCF [fluoroethane]
Conditions | mass density [kg/m3]
278.38 K, 201.28 kPa | 4.281 ± 0.043
278.38 K, 432.22 kPa | 9.679 ± 0.076
278.39 K, 297.17 kPa | 6.437 ± 0.056
283.26 K, 303.56 kPa | 6.463 ± 0.055
283.26 K, 442.81 kPa | 9.718 ± 0.076
283.27 K, 205.41 kPa | 4.298 ± 0.043
288.2 K, 209.64 kPa | 4.316 ± 0.043
288.21 K, 309.96 kPa | 6.489 ± 0.055
288.21 K, 452.92 kPa | 9.758 ± 0.075
293.09 K, 213.69 kPa | 4.313 ± 0.042
293.09 K, 316.32 kPa | 6.485 ± 0.055
293.1 K, 143.41 kPa | 2.868 ± 0.035
293.1 K, 462.98 kPa | 9.751 ± 0.075
298.65 K, 323.48 kPa | 6.515 ± 0.055
298.65 K, 682.94 kPa | 14.731 ± 0.11
298.66 K, 146.61 kPa | 2.881 ± 0.035
298.66 K, 218.72 kPa | 4.333 ± 0.042
298.66 K, 474.3 kPa | 9.797 ± 0.076
303.31 K, 149.42 kPa | 2.894 ± 0.034
303.31 K, 222.77 kPa | 4.351 ± 0.042
303.31 K, 329.55 kPa | 6.543 ± 0.054
303.31 K, 697.8 kPa | 14.795 ± 0.11
303.32 K, 483.63 kPa | 9.838 ± 0.076
308.96 K, 227.65 kPa | 4.351 ± 0.041
308.96 K, 336.88 kPa | 6.542 ± 0.054
308.97 K, 494.66 kPa | 9.837 ± 0.075
308.97 K, 715.6 kPa | 14.793 ± 0.11
308.98 K, 152.32 kPa | 2.893 ± 0.034
313.8 K, 155.2 kPa | 2.907 ± 0.034
313.8 K, 343.12 kPa | 6.572 ± 0.054
313.8 K, 1036.8 kPa | 22.346 ± 0.16
313.81 K, 231.58 kPa | 4.371 ± 0.041
313.81 K, 504.31 kPa | 9.882 ± 0.075
313.81 K, 730.5 kPa | 14.86 ± 0.11
318.66 K, 513.87 kPa | 9.903 ± 0.075
318.67 K, 158.08 kPa | 2.912 ± 0.033
318.67 K, 235.35 kPa | 4.379 ± 0.041
318.67 K, 349.39 kPa | 6.585 ± 0.054
318.67 K, 745.44 kPa | 14.89 ± 0.11
318.67 K, 1060.9 kPa | 22.39 ± 0.16
323.51 K, 355.59 kPa | 6.601 ± 0.054
323.51 K, 760.32 kPa | 14.926 ± 0.11
323.51 K, 1084.6 kPa | 22.444 ± 0.16
323.52 K, 160.85 kPa | 2.919 ± 0.033
323.52 K, 239.62 kPa | 4.39 ± 0.041
323.52 K, 523.39 kPa | 9.926 ± 0.075
328.42 K, 243.93 kPa | 4.403 ± 0.04
328.42 K, 532.98 kPa | 9.955 ± 0.075
328.42 K, 775.13 kPa | 14.969 ± 0.11
328.42 K, 1108.3 kPa | 22.509 ± 0.16
328.42 K, 1539.5 kPa | 33.847 ± 0.24
328.43 K, 163.8 kPa | 2.928 ± 0.033
328.43 K, 361.91 kPa | 6.62 ± 0.054
333.29 K, 541.96 kPa | 9.995 ± 0.075
333.3 K, 248.18 kPa | 4.42 ± 0.04
333.3 K, 368.16 kPa | 6.647 ± 0.054
333.3 K, 789.86 kPa | 15.029 ± 0.11
333.3 K, 1131.5 kPa | 22.599 ± 0.16
333.31 K, 166.7 kPa | 2.94 ± 0.033
338.15 K, 252.41 kPa | 4.426 ± 0.04
338.15 K, 374.3 kPa | 6.655 ± 0.053
338.15 K, 551.38 kPa | 10.008 ± 0.075
338.15 K, 1614.5 kPa | 34.027 ± 0.24
338.16 K, 169.6 kPa | 2.943 ± 0.032
338.16 K, 804.44 kPa | 15.048 ± 0.11
338.16 K, 1154.5 kPa | 22.629 ± 0.16
343.01 K, 256.69 kPa | 4.428 ± 0.04
343.01 K, 380.56 kPa | 6.659 ± 0.053
343.01 K, 818.91 kPa | 15.056 ± 0.11
343.02 K, 560.82 kPa | 10.013 ± 0.075
343.02 K, 1177.4 kPa | 22.64 ± 0.16
343.02 K, 1651.3 kPa | 34.043 ± 0.24
343.02 K, 2227.5 kPa | 51.191 ± 0.36
343.03 K, 172.53 kPa | 2.945 ± 0.032
347.85 K, 175.51 kPa | 2.953 ± 0.032
347.85 K, 570.22 kPa | 10.041 ± 0.075
347.85 K, 833.34 kPa | 15.099 ± 0.11
347.85 K, 1687.6 kPa | 34.14 ± 0.24
347.85 K, 2287.3 kPa | 51.336 ± 0.36
347.86 K, 260.96 kPa | 4.441 ± 0.04
347.86 K, 386.83 kPa | 6.677 ± 0.053
347.86 K, 1200 kPa | 22.704 ± 0.16
352.74 K, 265.25 kPa | 4.438 ± 0.039
352.74 K, 393.24 kPa | 6.674 ± 0.053
352.74 K, 579.94 kPa | 10.036 ± 0.075
352.74 K, 1724 kPa | 34.121 ± 0.24
352.74 K, 2347.1 kPa | 51.308 ± 0.36
352.74 K, 3018.7 kPa | 77.15 ± 0.54
352.75 K, 178.77 kPa | 2.951 ± 0.032
352.75 K, 847.82 kPa | 15.09 ± 0.11
352.75 K, 1222.3 kPa | 22.691 ± 0.16
358.61 K, 248.43 kPa | 4.077 ± 0.037
358.61 K, 544.42 kPa | 9.219 ± 0.069
358.61 K, 1159 kPa | 20.845 ± 0.15
358.61 K, 1648.3 kPa | 31.345 ± 0.22
358.61 K, 2274.6 kPa | 47.133 ± 0.33
358.62 K, 368.4 kPa | 6.131 ± 0.049
358.62 K, 799.33 kPa | 13.862 ± 0.1
363.36 K, 252.39 kPa | 4.076 ± 0.037
363.36 K, 553.08 kPa | 9.217 ± 0.069
363.36 K, 2325.7 kPa | 47.122 ± 0.33
363.36 K, 3082.3 kPa | 70.859 ± 0.5
363.37 K, 374.25 kPa | 6.129 ± 0.049
363.37 K, 811.8 kPa | 13.859 ± 0.1
363.37 K, 1178.9 kPa | 20.84 ± 0.15
363.37 K, 1680 kPa | 31.337 ± 0.22
368.26 K, 256.54 kPa | 4.087 ± 0.037
368.26 K, 380.26 kPa | 6.145 ± 0.049
368.26 K, 561.93 kPa | 9.24 ± 0.069
368.26 K, 825.1 kPa | 13.895 ± 0.1
368.26 K, 1199.4 kPa | 20.894 ± 0.15
368.26 K, 1712.2 kPa | 31.418 ± 0.22
368.26 K, 2378.2 kPa | 47.243 ± 0.33
368.27 K, 3165.9 kPa | 71.038 ± 0.5
373.13 K, 838.52 kPa | 13.867 ± 0.1
373.14 K, 260.73 kPa | 4.078 ± 0.037
373.14 K, 386.27 kPa | 6.133 ± 0.049
373.14 K, 1219.8 kPa | 20.851 ± 0.15
373.14 K, 1744.1 kPa | 31.354 ± 0.22
373.14 K, 2430.1 kPa | 47.146 ± 0.33
373.14 K, 3250.9 kPa | 70.894 ± 0.5
373.14 K, 4091.8 kPa | 106.604 ± 0.75
373.15 K, 570.74 kPa | 9.221 ± 0.069
378.01 K, 264.55 kPa | 4.087 ± 0.036
378.01 K, 391.92 kPa | 6.145 ± 0.049
378.01 K, 851.98 kPa | 13.896 ± 0.1
378.01 K, 1240 kPa | 20.895 ± 0.15
378.01 K, 1776.1 kPa | 31.42 ± 0.22
378.01 K, 2481.6 kPa | 47.245 ± 0.33
378.01 K, 3335.4 kPa | 71.042 ± 0.5
378.02 K, 579.55 kPa | 9.241 ± 0.069
378.02 K, 4235.2 kPa | 106.825 ± 0.75
